The values below come from publication PMC3639963, “A New Class of Small Molecule Inhibitor of BMP Signaling” (PLoS ONE, 2013).

Broadly, the inhibition is the relative decrease from the control value, in per cent.

Molecules are shown by their SMILES.

Assay in all cases: Nanosyn kinase profiling
Holding throughout (type): biochemical
Common to all, as to settings: read-out: Percentage inhibition; for inhibition at 0.1 µM: 0.1 µM inhibitor; for inhibition at 1 µM: 1 µM inhibitor

In assay [1] the target is T1, PKCβ2 (Homo sapiens, UniProt P05771).
T1 construct: purchased Nanosyn (enzymatic panel); SGC in-house recombinant human kinases (DSF panel); Invitrogen (ALK1-6)
T1 sequence (P05771 1-673 isoform P05771-2): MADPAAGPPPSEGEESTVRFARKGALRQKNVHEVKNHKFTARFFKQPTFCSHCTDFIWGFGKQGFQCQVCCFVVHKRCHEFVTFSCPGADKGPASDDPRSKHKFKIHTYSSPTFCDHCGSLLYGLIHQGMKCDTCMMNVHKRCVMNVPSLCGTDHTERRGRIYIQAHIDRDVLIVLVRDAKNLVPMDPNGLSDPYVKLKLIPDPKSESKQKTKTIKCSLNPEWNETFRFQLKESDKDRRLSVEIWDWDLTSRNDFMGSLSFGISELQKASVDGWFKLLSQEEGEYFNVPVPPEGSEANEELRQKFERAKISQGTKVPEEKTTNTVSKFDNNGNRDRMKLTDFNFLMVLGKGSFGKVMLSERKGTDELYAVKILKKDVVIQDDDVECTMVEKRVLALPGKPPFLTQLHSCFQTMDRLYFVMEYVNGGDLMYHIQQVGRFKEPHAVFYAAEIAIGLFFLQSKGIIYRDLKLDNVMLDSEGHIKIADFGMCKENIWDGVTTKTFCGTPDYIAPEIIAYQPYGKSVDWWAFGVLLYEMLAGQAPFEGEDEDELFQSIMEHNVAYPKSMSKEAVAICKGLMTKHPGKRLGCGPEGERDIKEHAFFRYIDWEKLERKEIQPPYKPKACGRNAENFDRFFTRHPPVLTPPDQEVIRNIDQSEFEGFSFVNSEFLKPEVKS
The gist of the method: (§1)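 Percent inhibition of each kinase was measured with the inhibitor at 0.1 µM and at 1 µM, as part of a 200-kinase human selectivity panel.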

The target in assay [2] is T2, HIPK4 (Homo sapiens, UniProt Q8NE63).
T2 construct: purchased Nanosyn (enzymatic panel); SGC in-house recombinant human kinases (DSF panel); Invitrogen (ALK1-6)
T2 sequence (Q8NE63 1-616): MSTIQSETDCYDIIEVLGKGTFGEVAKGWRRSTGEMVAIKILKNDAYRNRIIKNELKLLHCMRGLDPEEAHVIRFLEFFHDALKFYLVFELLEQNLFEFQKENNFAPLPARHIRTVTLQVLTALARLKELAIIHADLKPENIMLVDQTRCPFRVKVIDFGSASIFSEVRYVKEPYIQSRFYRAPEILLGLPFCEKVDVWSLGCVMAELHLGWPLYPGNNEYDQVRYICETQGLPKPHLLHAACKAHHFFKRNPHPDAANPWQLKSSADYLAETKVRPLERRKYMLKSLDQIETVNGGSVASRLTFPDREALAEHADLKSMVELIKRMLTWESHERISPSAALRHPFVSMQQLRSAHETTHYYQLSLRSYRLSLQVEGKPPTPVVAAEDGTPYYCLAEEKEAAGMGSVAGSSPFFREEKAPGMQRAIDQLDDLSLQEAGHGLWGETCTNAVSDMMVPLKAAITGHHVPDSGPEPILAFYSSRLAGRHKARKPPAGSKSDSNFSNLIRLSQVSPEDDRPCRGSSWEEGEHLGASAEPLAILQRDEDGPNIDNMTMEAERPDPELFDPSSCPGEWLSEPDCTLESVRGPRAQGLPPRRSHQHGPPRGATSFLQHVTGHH
In short, it runs like this:
as §1

The target of assay [3] is T3, PRAK (Homo sapiens, UniProt Q8IW41).
T3 construct: purchased Nanosyn (enzymatic panel); SGC in-house recombinant human kinases (DSF panel); Invitrogen (ALK1-6)
T3 sequence (Q8IW41 1-473): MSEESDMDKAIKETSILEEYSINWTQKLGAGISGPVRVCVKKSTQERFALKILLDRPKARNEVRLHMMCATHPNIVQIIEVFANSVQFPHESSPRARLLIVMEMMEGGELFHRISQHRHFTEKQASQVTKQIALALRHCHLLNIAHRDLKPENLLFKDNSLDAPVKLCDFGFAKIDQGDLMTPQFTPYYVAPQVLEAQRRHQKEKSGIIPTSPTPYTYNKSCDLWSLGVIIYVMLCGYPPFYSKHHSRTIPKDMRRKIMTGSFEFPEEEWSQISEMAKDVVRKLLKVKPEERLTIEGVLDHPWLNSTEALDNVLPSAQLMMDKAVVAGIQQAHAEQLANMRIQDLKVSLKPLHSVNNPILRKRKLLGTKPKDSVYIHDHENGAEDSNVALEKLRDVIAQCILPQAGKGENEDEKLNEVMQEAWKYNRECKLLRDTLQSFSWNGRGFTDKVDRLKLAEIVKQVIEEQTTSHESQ
In short, it runs like this: as §1

The target in assay [4] is T4, SGK3 (Homo sapiens, UniProt Q96BR1).
T4 construct: purchased Nanosyn (enzymatic panel); SGC in-house recombinant human kinases (DSF panel); Invitrogen (ALK1-6)
T4 sequence (Q96BR1 1-496): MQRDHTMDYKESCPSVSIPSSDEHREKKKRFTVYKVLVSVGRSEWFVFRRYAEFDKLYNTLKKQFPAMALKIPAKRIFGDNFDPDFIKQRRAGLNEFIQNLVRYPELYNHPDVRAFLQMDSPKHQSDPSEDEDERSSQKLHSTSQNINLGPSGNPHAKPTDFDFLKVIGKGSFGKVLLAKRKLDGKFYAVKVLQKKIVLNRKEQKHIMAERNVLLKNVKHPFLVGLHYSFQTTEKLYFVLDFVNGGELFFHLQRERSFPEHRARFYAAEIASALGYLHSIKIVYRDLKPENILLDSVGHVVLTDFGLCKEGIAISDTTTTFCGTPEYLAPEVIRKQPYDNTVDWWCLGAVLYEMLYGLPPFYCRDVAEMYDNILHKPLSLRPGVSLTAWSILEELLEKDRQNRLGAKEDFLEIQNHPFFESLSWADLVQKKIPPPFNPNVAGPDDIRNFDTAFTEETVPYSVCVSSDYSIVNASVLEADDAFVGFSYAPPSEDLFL
The gist of the method: as §1

The target of assay [5] is T5, SGK2 (Homo sapiens, UniProt Q9HBY8).
T5 construct: purchased Nanosyn (enzymatic panel); SGC in-house recombinant human kinases (DSF panel); Invitrogen (ALK1-6)
T5 sequence (Q9HBY8 1-367): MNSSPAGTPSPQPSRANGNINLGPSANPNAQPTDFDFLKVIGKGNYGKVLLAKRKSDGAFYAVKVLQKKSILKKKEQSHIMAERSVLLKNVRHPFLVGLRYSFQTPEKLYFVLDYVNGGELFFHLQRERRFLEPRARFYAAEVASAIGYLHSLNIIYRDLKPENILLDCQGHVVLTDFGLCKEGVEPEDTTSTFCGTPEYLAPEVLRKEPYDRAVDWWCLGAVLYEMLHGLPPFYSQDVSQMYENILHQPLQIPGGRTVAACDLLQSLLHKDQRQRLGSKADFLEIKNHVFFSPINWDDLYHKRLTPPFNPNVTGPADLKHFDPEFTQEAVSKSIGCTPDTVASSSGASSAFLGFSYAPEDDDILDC
The gist of the method: as §1

Assay [6] concerns the target T6, PASK (Homo sapiens, UniProt Q96RG2).
T6 construct: purchased Nanosyn (enzymatic panel); SGC in-house recombinant human kinases (DSF panel); Invitrogen (ALK1-6)
The gist of the method: as §1

Assay [7] deals with T7, BRK (Homo sapiens, UniProt Q13882).
T7 construct: purchased Nanosyn (enzymatic panel); SGC in-house recombinant human kinases (DSF panel); Invitrogen (ALK1-6)
T7 sequence (Q13882 whole entry): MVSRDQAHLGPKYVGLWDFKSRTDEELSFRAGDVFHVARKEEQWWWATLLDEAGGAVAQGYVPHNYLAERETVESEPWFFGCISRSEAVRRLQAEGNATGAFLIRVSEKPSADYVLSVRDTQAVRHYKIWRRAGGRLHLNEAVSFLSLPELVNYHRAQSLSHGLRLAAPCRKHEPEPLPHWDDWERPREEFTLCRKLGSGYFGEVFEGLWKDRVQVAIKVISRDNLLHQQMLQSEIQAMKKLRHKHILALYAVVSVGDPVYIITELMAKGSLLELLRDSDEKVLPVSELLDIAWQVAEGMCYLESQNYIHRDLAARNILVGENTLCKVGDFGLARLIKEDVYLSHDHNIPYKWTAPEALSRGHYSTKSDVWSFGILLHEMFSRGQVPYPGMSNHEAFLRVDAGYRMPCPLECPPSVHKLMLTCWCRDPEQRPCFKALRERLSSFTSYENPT
The gist of the method:
as §1

The target of assay [8] is T8, PDGFRβ (Homo sapiens, UniProt P09619).
T8 construct: purchased Nanosyn (enzymatic panel); SGC in-house recombinant human kinases (DSF panel); Invitrogen (ALK1-6)
T8 sequence (P09619 33-1106): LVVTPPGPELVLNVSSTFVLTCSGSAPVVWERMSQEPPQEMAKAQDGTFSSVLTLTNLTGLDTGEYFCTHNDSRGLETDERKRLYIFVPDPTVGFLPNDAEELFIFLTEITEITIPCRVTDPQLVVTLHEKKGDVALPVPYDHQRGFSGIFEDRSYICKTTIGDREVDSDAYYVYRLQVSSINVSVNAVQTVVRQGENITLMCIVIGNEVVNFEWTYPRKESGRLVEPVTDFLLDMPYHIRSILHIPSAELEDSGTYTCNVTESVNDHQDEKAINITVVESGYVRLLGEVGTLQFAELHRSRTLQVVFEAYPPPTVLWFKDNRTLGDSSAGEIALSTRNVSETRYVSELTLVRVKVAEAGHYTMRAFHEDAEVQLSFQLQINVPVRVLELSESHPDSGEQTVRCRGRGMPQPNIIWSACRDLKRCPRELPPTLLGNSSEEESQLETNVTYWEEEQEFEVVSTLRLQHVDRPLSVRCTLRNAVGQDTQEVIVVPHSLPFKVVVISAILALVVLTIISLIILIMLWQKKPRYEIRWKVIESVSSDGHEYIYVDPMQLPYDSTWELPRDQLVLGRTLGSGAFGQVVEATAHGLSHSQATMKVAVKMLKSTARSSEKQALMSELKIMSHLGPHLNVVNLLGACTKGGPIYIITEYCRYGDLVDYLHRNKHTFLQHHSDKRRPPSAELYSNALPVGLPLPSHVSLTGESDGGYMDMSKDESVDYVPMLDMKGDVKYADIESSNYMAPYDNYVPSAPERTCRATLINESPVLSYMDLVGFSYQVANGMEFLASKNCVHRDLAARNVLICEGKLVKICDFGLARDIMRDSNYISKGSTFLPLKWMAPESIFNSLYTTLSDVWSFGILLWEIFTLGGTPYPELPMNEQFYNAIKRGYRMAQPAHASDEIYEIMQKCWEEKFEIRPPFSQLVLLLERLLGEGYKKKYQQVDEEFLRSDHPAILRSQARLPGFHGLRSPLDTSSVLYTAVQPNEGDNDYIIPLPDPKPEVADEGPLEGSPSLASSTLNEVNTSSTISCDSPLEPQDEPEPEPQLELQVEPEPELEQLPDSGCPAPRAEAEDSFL
In short, it runs like this: as §1

T6 sequence (Q96RG2 whole entry): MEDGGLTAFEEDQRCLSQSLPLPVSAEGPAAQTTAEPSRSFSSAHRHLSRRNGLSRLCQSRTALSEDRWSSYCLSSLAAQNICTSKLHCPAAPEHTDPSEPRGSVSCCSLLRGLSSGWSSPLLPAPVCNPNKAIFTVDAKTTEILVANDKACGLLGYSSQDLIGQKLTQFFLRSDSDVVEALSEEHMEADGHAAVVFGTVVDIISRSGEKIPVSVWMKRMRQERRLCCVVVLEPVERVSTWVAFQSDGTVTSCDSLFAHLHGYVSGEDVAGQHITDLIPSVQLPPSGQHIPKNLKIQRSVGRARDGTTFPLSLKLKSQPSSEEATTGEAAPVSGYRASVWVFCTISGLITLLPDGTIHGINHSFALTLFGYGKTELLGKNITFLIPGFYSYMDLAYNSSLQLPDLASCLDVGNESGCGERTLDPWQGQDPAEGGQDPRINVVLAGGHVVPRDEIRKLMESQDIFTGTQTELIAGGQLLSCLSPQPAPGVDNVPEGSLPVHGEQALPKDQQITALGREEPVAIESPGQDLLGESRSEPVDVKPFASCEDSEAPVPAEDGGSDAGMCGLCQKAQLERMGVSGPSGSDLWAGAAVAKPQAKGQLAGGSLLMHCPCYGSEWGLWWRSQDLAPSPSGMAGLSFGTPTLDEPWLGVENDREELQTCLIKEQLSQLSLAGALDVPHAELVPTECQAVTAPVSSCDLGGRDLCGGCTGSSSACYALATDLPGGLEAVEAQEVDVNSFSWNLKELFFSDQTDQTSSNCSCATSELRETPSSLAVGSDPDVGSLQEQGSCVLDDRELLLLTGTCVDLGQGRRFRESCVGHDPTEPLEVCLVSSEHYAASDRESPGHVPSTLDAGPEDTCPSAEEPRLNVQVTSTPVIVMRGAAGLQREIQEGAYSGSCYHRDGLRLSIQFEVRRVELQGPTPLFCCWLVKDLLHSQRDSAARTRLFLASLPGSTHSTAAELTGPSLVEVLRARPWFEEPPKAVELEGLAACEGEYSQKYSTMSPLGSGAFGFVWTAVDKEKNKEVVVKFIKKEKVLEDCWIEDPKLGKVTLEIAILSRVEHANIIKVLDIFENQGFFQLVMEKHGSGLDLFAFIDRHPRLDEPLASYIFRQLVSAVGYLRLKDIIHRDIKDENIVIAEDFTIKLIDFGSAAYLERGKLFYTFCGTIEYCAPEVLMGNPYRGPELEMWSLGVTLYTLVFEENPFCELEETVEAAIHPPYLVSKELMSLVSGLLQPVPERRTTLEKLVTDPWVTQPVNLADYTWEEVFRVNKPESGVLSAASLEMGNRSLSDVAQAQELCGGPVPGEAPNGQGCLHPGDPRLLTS

As for `COc1cc(-c2cc(-c3cccc(O)c3)cnc2N)cc(OC)c1OC` [K02288, 3-[6-amino-5-(3,4,5-trimethoxy-phenyl)-pyridin-3-yl]-phenol], the inhibition at 0.1 µM in assay [1] was 0%; in assay [2], 0.8%; in assay [3] it was 0%; in assay [4] it was -2%; in assay [5], 2.7%; in assay [6], 1.1%. The figures for the inhibition at 0.1 µM in assay [7] and in assay [8] were 13% and 7.7%, respectively. The inhibition at 1 µM in assay [1] is -1%; in assay [2], 4.2%; in assay [3] it was 0%; in assay [4] it was -1%; in assay [5], 1.3%; in assay [6], 0.6%. The inhibition at 1 µM in assay [7] is 66%; in assay [8], 43%.
For the compound `c1ccc2c(-c3cnn4cc(-c5ccc(N6CCNCC6)cc5)cnc34)ccnc2c1` [LDN-193189], the inhibition at 0.1 µM in assay [1] was 1%; in assay [2] it was 0%; in assay [3], 0.8%; in assay [4] it was 1.6%; in assay [5] it was 2.3%; in assay [6] it was 1.9%. The inhibition at 0.1 µM stood at 13% in assay [7] and 39% in assay [8]. Moreover, the inhibition at 1 µM in assay [1] was 1.8%; in assay [2], 4.9%; in assay [3] it was 0.1%; in assay [4], 2.3%; in assay [5], 0.2%; in assay [6], 1.4%. The values for the inhibition at 1 µM in assay [7] and in assay [8] were 57% and 75%, respectively.
